Source: ChEMBL document CHEMBL4373747 (ACS Med Chem Lett, 2020)

How the values were obtained:
Histone deacetylase 8 = biological target: T1, Histone deacetylase 8 (Homo sapiens, UniProt Q9BY41); assay: Inhibition of recombinant full length human HDAC8 expressed in baculovirus infected Sf9 cells using FAM-RHKK-TFAc as substrate incubated for 3 hrs by electrophoretic mobility shift assay
T1 sequence (Q9BY41 whole entry): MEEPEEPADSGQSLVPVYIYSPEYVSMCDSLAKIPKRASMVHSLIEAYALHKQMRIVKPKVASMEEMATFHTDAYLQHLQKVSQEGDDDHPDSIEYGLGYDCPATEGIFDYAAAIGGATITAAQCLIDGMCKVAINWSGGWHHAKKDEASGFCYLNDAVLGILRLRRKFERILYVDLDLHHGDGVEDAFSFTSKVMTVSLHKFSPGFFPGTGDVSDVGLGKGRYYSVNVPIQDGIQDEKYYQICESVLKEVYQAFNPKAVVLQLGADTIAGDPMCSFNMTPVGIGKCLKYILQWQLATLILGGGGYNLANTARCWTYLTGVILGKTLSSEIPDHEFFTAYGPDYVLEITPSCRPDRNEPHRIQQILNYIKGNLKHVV

MV4-11 [1] = assay: Induction of apoptosis in human MV4-11 cells assessed as viable cells at 0.25 uM incubated for 18 hrs by annexin V FITC and PI based flow cytometry (reference value: 53.01 to 53.07 %); type: functional; conditions: Homo sapiens, MV4-11, 18 h; read-out: Activity
[2] = biological target: T2, Protein deacetylase HDAC6 (Homo sapiens, UniProt Q9UBN7); assay: Inhibition of recombinant full length human HDAC6 expressed in baculovirus infected Sf9 cells assessed as inhibitory constant using FAM-RHKK-Ac as substrate incubated for 5 hrs by electrophoretic mobility shift assay
T2 sequence (Q9UBN7 whole entry): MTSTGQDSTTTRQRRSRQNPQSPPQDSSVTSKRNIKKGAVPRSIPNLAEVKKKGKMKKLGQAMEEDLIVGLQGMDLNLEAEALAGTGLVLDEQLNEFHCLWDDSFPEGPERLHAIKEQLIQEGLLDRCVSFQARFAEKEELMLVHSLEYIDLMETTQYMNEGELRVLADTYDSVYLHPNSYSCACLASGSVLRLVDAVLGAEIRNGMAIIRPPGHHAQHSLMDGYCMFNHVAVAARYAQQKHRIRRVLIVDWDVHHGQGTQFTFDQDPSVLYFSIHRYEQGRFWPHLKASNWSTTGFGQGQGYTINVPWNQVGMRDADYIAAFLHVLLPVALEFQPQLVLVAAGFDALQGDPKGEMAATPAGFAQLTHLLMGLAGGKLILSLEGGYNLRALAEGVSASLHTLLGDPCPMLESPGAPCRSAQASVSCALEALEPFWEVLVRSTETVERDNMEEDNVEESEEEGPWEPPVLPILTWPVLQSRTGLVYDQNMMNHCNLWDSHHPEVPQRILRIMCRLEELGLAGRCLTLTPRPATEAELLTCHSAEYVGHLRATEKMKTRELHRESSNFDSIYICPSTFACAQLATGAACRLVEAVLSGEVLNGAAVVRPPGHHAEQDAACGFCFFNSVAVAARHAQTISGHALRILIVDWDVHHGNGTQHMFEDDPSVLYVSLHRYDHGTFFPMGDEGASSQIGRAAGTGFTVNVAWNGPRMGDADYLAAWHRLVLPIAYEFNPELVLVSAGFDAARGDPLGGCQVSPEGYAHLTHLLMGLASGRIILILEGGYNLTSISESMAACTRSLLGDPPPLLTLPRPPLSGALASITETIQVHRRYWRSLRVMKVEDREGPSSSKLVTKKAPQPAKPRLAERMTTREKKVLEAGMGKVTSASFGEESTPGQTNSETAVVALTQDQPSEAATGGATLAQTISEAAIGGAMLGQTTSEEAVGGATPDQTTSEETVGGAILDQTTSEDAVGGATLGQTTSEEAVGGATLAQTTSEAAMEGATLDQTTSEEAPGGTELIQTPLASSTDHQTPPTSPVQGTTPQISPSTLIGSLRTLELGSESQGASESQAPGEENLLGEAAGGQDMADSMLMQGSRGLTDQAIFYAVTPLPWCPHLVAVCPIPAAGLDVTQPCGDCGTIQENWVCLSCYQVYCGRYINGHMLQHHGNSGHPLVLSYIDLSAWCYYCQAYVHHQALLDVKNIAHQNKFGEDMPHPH

Histone deacetylase 1 = Histone deacetylase 1 (Homo sapiens, UniProt Q13547); assay: Inhibition of recombinant full length human HDAC1 expressed in baculovirus infected Sf9 cells using FAM-RHKK-Ac as substrate incubated for 17 hrs by electrophoretic mobility shift assay
Histone deacetylase 1, sequence (Q13547 whole entry): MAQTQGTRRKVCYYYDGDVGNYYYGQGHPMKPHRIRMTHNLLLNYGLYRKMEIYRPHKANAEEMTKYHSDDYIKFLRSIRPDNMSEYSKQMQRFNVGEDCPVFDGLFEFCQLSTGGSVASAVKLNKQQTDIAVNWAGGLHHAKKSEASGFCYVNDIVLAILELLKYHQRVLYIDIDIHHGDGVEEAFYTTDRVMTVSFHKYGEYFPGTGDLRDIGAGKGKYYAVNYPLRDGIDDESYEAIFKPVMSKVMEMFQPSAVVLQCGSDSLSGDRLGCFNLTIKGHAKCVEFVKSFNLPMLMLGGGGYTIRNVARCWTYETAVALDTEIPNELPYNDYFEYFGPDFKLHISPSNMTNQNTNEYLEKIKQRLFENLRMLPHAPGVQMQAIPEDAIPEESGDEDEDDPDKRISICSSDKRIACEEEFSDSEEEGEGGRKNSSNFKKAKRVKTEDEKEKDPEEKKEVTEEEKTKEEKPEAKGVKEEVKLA

HeLa = assay: Cytotoxicity against human HeLa cells assessed as reduction in cell viability incubated for 72 hrs by cell-titer blue assay; type: functional, cell-based
[3] = biological target: T2, Protein deacetylase HDAC6; assay: (§1) Inhibition of HDAC6 in human HeLa cells incubated for 15 mins by ELISA; type: cell-based
[4] = biological target: T3, Protein deacetylase HDAC6 (Homo sapiens) (UniProt Q9UBN7); assay: as §1; type: cell-based
T3 sequence (whole entry): T2 sequence (Q9UBN7 whole entry)

[5] = Half life in NSG mouse; type: ADME; conditions: in vivo
MV4-11 [6] = assay: Induction of apoptosis in human MV4-11 cells assessed as late apoptotic cells at 1 uM incubated for 18 hrs by annexin V FITC and PI based flow cytometry (reference value: 9.2 to 9.63 %); type: functional
Histone deacetylase 11 = biological target: T4, Histone deacetylase 11 (Homo sapiens, UniProt Q96DB2); assay: Inhibition of recombinant full length human HDAC11 expressed in baculovirus infected Sf9 cells using FAM-RHKK-TFAc as substrate incubated for 17 hrs by electrophoretic mobility shift assay
T4 sequence (Q96DB2 whole entry): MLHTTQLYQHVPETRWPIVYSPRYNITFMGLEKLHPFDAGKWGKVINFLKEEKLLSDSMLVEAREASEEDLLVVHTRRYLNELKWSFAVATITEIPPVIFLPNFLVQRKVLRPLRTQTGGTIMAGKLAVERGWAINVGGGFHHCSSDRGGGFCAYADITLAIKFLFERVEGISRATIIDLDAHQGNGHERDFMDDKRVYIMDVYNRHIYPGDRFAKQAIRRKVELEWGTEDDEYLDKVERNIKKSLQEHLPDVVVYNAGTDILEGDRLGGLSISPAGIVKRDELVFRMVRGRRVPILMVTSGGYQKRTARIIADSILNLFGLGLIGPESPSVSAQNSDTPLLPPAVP

Histone deacetylase 4 = Histone deacetylase 4 (Homo sapiens, UniProt P56524); assay: Inhibition of recombinant full length human HDAC4 expressed in baculovirus infected Sf9 cells using FAM-RHKK-TFAc as substrate incubated for 1.5 hrs by electrophoretic mobility shift assay
Histone deacetylase 4, sequence (P56524 whole entry): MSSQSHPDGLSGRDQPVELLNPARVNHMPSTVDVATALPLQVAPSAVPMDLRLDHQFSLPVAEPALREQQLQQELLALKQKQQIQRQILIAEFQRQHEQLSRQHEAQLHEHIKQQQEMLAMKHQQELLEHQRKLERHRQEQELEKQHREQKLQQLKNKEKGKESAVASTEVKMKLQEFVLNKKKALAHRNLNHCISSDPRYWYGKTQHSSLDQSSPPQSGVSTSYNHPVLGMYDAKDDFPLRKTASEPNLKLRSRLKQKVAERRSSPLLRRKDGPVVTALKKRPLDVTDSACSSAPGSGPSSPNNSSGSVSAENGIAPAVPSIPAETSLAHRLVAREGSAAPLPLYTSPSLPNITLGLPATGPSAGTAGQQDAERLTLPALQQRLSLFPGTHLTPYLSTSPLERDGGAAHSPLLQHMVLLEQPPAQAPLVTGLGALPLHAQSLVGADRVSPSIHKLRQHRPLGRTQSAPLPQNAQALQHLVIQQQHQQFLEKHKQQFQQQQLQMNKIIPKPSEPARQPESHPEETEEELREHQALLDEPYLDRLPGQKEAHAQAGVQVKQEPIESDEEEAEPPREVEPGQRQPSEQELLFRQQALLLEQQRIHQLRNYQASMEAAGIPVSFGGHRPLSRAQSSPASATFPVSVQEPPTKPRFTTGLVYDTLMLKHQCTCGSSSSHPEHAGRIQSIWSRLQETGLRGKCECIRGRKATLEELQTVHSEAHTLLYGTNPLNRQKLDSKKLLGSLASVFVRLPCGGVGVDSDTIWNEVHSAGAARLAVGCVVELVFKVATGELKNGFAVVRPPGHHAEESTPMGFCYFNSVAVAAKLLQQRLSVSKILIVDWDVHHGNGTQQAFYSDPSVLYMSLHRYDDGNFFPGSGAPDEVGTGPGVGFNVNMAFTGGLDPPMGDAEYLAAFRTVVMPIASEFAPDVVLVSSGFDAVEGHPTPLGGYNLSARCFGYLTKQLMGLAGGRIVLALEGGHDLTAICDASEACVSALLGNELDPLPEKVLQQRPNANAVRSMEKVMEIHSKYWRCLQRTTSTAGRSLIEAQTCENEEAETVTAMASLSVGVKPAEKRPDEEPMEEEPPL

MDA-MB-468 = assay: Cytotoxicity against human MDA-MB-468 cells assessed as reduction in cell viability incubated for 72 hrs by cell-titer blue assay; type: functional, cell-based; conditions: MDA-MB-468, 72 h
Histone deacetylase 5 = Histone deacetylase 5 (Homo sapiens, UniProt Q9UQL6); assay: Inhibition of recombinant full length human HDAC5 expressed in baculovirus infected Sf9 cells using FAM-RHKK-TFAc as substrate incubated for 3 hrs by electrophoretic mobility shift assay
Histone deacetylase 5, sequence (Q9UQL6 whole entry): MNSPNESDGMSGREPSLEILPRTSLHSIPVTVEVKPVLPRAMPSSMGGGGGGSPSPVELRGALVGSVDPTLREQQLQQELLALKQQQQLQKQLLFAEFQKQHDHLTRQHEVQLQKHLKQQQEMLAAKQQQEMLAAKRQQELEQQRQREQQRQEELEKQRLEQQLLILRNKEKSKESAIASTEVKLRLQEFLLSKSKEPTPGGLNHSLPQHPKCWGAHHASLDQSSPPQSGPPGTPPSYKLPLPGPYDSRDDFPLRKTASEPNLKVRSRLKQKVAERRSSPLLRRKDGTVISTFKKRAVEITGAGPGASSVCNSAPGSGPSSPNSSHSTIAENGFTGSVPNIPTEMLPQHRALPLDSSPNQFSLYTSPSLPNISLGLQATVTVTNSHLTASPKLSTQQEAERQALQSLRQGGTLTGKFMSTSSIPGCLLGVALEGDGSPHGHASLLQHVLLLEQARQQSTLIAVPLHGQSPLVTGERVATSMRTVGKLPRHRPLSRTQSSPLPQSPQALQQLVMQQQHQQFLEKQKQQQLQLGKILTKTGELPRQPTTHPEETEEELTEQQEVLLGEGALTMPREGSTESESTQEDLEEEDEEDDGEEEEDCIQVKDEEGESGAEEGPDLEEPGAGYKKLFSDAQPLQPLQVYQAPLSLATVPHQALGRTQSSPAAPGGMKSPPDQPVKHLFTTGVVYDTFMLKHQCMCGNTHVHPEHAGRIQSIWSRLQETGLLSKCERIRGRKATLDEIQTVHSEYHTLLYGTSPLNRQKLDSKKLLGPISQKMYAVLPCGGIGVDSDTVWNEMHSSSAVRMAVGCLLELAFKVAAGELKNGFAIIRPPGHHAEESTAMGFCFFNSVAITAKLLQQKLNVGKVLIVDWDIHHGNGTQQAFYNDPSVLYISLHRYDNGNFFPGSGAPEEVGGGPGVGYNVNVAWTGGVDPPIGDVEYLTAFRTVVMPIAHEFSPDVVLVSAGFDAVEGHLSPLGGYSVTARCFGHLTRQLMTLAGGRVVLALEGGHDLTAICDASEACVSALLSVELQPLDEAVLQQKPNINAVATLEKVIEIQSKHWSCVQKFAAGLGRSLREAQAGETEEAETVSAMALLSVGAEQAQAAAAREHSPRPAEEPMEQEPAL

[7] = Cytotoxicity against human MRC9 cells assessed as reduction in cell viability incubated for 72 hrs by cell-titer blue assay; type: cell-based; conditions: MRC9, 72 h

- IC50 (Histone deacetylase 8): 0.245 µM
- Ki [2]: 0.035 µM
- IC50 (Histone deacetylase 1): 0.605 µM
- IC50 [3]: 0.58 µM
- inhibition [4]: Dose-dependent effect
- half-life [5]: 5 h
- IC50 (Histone deacetylase 11): > 1 µM
- IC50 (Histone deacetylase 4): > 1 µM
- IC50 (Histone deacetylase 5): > 1 µM
SMILES: CC(C)(C)c1ccc(C(=O)Nc2ccc(C(=O)NO)cc2)cc1
- viability at 0.25 µM (MV4-11 [1]): 57.5%
- IC50 (HeLa): 2.53 µM
- Activity (MV4-11 [6]): 16.08%
- IC50 (MDA-MB-468): > 50 µM
- IC50 [7]: 33.2 µM
